Measurements: publication PMC4024383 (European journal of medicinal chemistry, 2014)

Experiments:
[1] = biological target: recombinant PfCDPK4 (Plasmodium falciparum, UniProt Q8IBS5); experiment: PfCDPK4 luminescence-based; format: biochemical; settings: for fold more potent against PfCDPK4 than PfCDPK1: ratio of IC50s
[2] = biological target: T1, Abl tyrosine kinase (Homo sapiens, UniProt P00519); experiment: Abl radioactive kinase assay; format: biochemical
T1 sequence (P00519 229-512 limits assumed): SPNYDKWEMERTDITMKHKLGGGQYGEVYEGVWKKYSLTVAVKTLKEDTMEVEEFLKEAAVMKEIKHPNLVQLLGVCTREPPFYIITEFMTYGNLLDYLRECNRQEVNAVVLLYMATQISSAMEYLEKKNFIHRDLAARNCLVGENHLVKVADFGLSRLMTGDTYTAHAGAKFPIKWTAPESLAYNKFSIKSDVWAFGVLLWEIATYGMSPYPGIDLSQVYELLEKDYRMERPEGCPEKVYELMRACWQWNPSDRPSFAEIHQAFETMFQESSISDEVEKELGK

[3] = tested on: P. falciparum gametocyte exflagellation; experiment: P. falciparum exflagellation assay; format: cell-based; settings: Plasmodium falciparum, read-out: P. falciparum exflagellation inhibition EC50
[4] = Human cell growth inhibition assay; format: cell-based; settings: HepG2 cells (liver)
[5] = Human cell growth inhibition assay; format: cell-based; settings: CRL-8155 cells (lymphocytic)
[6] = tested on: Src kinase; experiment: Src radioactive kinase assay; settings: ratio of IC50s
[7] = tested on: PfCDPK1; experiment: PfCDPK1 enzymatic assay; format: biochemical, Plasmodium falciparum; settings: ratio of IC50s

Chain of recombinant PfCDPK4 (Q8IBS5 whole entry): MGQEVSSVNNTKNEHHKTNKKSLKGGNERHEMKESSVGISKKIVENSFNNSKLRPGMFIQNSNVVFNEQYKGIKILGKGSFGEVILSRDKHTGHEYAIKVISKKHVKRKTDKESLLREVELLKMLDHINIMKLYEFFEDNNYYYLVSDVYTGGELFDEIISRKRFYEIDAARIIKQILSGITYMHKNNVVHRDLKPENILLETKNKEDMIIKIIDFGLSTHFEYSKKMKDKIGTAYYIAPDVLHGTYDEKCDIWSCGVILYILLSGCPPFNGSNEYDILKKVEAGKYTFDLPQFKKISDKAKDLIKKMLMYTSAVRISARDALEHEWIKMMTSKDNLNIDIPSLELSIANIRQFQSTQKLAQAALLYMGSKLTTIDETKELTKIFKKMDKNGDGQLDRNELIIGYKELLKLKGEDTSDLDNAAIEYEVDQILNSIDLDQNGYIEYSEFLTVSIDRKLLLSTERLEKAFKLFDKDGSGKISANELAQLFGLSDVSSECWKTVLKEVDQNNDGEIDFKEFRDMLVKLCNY

Row | Structure (SMILES) | IC50 [1] | EC50 [3] | GI50 [4] | GI50 [5] | other results
1 | CCOc1ccc2cc(-c3nn(CC(C)C)c4ncnc(N)c34)ccc2c1 [17q, 3-(6-ethoxynaphthalen-2-yl)-1-isobutyl-1H-pyrazolo[3,4-d]pyrimidin-4-amine] | 14 nM | < 40 nM | > 30000 nM | > 30000 nM | fold more potent against PfCDPK4 than i-Pr analog 17a ([1]; relative to 17a): more than 30 fold; IC50 [2]: 2700 nM
2 | CCOc1ccc2cc(-c3nn(CC4CNC4)c4ncnc(N)c34)ccc2c1 [17g, 1-(azetidin-3-ylmethyl)-3-(6-ethoxynaphthalen-2-yl)-1H-pyrazolo[3,4-d]pyrimidin-4-amine] |  |  |  |  | selectivity for PfCDPK4 over Src [6]: greater than 1300 fold
3 | CCOc1ccc2cc(-c3nn(CC(C)(C)CO)c4ncnc(N)c34)ccc2n1 [30u, 3-(4-amino-3-(2-ethoxyquinolin-6-yl)-1H-pyrazolo[3,4-d]pyrimidin-1-yl)-2,2-dimethylpropan-1-ol] | 4 nM | < 40 nM | > 30000 nM | > 30000 nM | IC50 [2]: > 10000 nM
4 | Nc1ncnc2c1c(-c1ccc3cc(OC4CC4)ccc3c1)nn2CC1CCNCC1 [37j, 3-(6-cyclopropoxynaphthalen-2-yl)-1-(piperidin-4-ylmethyl)-1H-pyrazolo[3,4-d]pyrimidin-4-amine] | 2 nM | < 40 nM | > 30000 nM | > 30000 nM | 
5 | CCOc1ccc2cc(-c3nn(C(C)C)c4ncnc(N)c34)ccc2n1 [30a, 3-(2-ethoxyquinolin-6-yl)-1-isopropyl-1H-pyrazolo[3,4-d]pyrimidin-4-amine] | < 20 nM |  |  |  | fold more potent against PfCDPK4 than PfCDPK1 [1]: > 5 fold
6 | CC(C)n1nc(-c2ccc3nc(OCc4ccccc4)ccc3c2)c2c(N)ncnc21 [33a, 3-(2-(benzyloxy)quinolin-6-yl)-1-isopropyl-1H-pyrazolo[3,4-d]pyrimidin-4-amine] |  |  |  |  | fold more potent against PfCDPK1 than PfCDPK4 [7]: > 3 fold
7 | CCOc1ccc2cc(-c3nn(C(C)C)c4ncnc(N)c34)cc(C)c2n1 [31a, 3-(2-ethoxy-8-methylquinolin-6-yl)-1-isopropyl-1H-pyrazolo[3,4-d]pyrimidin-4-amine] |  |  |  |  | fold more potent against PfCDPK4 than PfCDPK1 [1]: > 5 fold
